Experimental findings from patent US6383276B1, “Azomethine compound and oily magenta ink” (Fuji Photo Film Co., Ltd., priority 1999, dated 2002) are described below.

Series [1] is described as follows: Measurement of solubility in ethyl acetate (Example 6, Comparison Example 1). The format is physicochemical. The conditions noted are these: 25° C. for 20 hours, filtered through 0.2 μm filter, ink concentrated. The method, then: With respect to each of the azomethine compounds (Ia-6), (Ia-12) and (Ia-14), 600 mg of the compound was placed in a lidded test tube. After 2 ml of ethyl acetate was added, the mixture was treated with an ultrasonic cleaner for 30 minutes. The resultant liquid was heated and stirred at 65° C. for 1 hour, and then cooled to room temperature. After leaving the test tube in a constant temperature bath at 25° C. for 20 hours, solid particles were filtered off with a micro filter having the pore size of 0.2 μm to prepare an oily magenta ink.
Each prepared ink was concentrated to measure the solubility, but solid (crystallite) was not deposited.
With respect to each of the following azomethine compounds (X-1), (X-2), (X-3) and (X-4), 30 mg of the compound was placed in a lidded test tube. After 2 ml of ethyl acetate was added, the mixture was treated with an ultrasonic cleaner for 30 minutes. The resultant liquid was heated and stirred at 65° C. for 1 hour, and then cooled to room temperature. After leaving the test tube in a constant temperature bath at 25° C. for 20 hours, solid particles were filtered off with a micro filter having the pore size of 0.2 μm to prepare an oily magenta ink. [drawing 13]
Each prepared ink was concentrated to measure the solubility.

Series [2] is described as follows: Absorption maximum and molar extinction coefficient of ethyl acetate solutions. It is filed as physicochemical. The conditions noted are these: ethyl acetate solution. The method, then:
With respect to each of the ethyl acetate-base magenta inks [ethyl acetate solutions of the compounds (Ia-1), (Ia-6), (Ia-12), (Ia-13), (Ia-14) and (Ia-15)] prepared in Example 4, the absorption maximum (λmax) and molar extinction coefficient (ε) were measured.
With respect to each of the ethyl acetate-base magenta inks [ethyl acetate solutions of the compounds (X-1), (X-2), (X-3) and (X-4)] prepared in Comparison Example 1, the absorption maximum (λmax) was measured.

In turn, `COc1ccc(OCCN(CCC#N)c2ccc(N=C3C(C)=Nn4nc(C(C)CN5C(=O)c6ccccc6C5=O)nc43)cc2)cc1` (stereo not drawn) [X-1, reference compound] showed a Solubility in series [1] of 0.18 wt. %. In addition, the “Absorption maximum (λmax)” value in series [2] (Table 2) is 504 nm.
`CCCCCCC(Oc1ccc(C(C)(C)CC)cc1C(C)(C)CC)C(=O)Nc1ccc(-c2nc3n(n2)N=C(C(C)(C)C)C3=Nc2ccc(N(CC)CCC#N)cc2)cc1` (stereo not drawn) [Ia-13]: in series [2] (Table 1), the “Absorption maximum (λmax)” value was 517 nm and the “Molar extinction coefficient (ε)” value was 4.6 × 10^4.
As for `CCN(CC)c1ccc(N=C2C(C)=Nn3nc(C(C)CNC(=O)CCCOc4ccc(OC)cc4)nc32)c(C)c1` (stereo not drawn) [X-4, reference compound], the Solubility in series [1] is 0.63 wt. %. For the same compound, the “Absorption maximum (λmax)” value in series [2] (Table 2) came to 536 nm.
`CCCCCCC(Oc1ccc(C(C)(C)CC)cc1C(C)(C)CC)C(=O)Nc1ccc(-c2nc3n(n2)N=C(C(C)(C)C)C3=Nc2ccc(N(CCC#N)CCCC)cc2)cc1` (stereo not drawn) [Ia-14]: the Solubility in series [1] is 30.1 wt. % or more. In addition, the “Absorption maximum (λmax)” value in series [2] (Table 1) and in series [2] (Table 2) was 520 nm in each case. Moreover, in series [2] (Table 1), the “Molar extinction coefficient (ε)” value was 4.8 × 10^4.
As to `CCCCCCC(Oc1ccc(C(C)(C)CC)cc1C(C)(C)CC)C(=O)Nc1ccc(-c2nc3n(n2)N=C(C(C)(C)C)C3=Nc2ccc(N(CCO)CCC#N)cc2C)cc1` (stereo not drawn) [Ia-15], in series [2] (Table 1), the “Absorption maximum (λmax)” value is on record as 532 nm and the “Molar extinction coefficient (ε)” value is 4.9 × 10^4.
With `CCCCCCC(Oc1ccc(C(C)(C)CC)cc1C(C)(C)CC)C(=O)NCC(C)c1nc2n(n1)N=C(C)C2=Nc1ccc(N(CCO)CCC#N)cc1C` (stereo not drawn) [Ia-6], the Solubility in series [1] was 30.2 wt. % or more. In series [2] (Table 1), the “Absorption maximum (λmax)” value was 522 nm and the “Molar extinction coefficient (ε)” value was 5.2 × 10^4. For the same compound, the “Absorption maximum (λmax)” value in series [2] (Table 2) was 522 nm.
The compound `CCN(CCC#N)c1ccc(N=C2C(C)=Nn3nc(C(C)CNC(=O)CCCOc4ccc(OC)cc4)nc32)cc1` (stereo not drawn) [X-3, reference compound] showed a Solubility in series [1] of 1.72 wt. %. Moreover, the “Absorption maximum (λmax)” value in series [2] (Table 2) worked out at 511 nm.
For `CCCCCCCCCCCCCCOC(=O)CCC(=O)Nc1ccc(-c2nc3n(n2)N=C(C(C)(C)C)C3=Nc2ccc(N(CCC#N)CCCC)cc2)cc1` [Ia-12], the Solubility in series [1] is 30.1 wt. % or more. In addition, in series [2] (Table 1), the “Absorption maximum (λmax)” value was found to be 519 nm and the “Molar extinction coefficient (ε)” value is listed as 4.8 × 10^4. Besides, the “Absorption maximum (λmax)” value in series [2] (Table 2) is given as 519 nm.
Consider `CCCCCCC(Oc1ccc(C(C)(C)CC)cc1C(C)(C)CC)C(=O)NCC(C)c1nc2n(n1)N=C(C)C2=Nc1ccc(N(CC)CCC#N)cc1` (stereo not drawn) [Ia-1], for which, in series [2] (Table 1), the “Absorption maximum (λmax)” value amounted to 512 nm and the “Molar extinction coefficient (ε)” value is listed as 5.0 × 10^4.
